Assay results reported in ChEMBL document CHEMBL5120788, “Structure-activity relationship studies of functionalized aromatic peptidomimetics as neurolysin activators” (Bioorg Med Chem Lett, 2022).

Tests used:
[1] = molecular target: Neurolysin, mitochondrial (Rattus norvegicus) (UniProt P42676); assay: Activation of recombinant rat Nln assessed as maximal efficacy using MCA-Pro-Leu-Gly-Pro-D-Lys (DNP)-OH as substrate preincubated for 10 mins followed by substrate addition and measured after 20 mins by fluorescence based assay relative to control; details: filed as activator, time 30.0 min
Sequence of Neurolysin, mitochondrial (Rattus norvegicus) (P42676 38-704 limits assumed): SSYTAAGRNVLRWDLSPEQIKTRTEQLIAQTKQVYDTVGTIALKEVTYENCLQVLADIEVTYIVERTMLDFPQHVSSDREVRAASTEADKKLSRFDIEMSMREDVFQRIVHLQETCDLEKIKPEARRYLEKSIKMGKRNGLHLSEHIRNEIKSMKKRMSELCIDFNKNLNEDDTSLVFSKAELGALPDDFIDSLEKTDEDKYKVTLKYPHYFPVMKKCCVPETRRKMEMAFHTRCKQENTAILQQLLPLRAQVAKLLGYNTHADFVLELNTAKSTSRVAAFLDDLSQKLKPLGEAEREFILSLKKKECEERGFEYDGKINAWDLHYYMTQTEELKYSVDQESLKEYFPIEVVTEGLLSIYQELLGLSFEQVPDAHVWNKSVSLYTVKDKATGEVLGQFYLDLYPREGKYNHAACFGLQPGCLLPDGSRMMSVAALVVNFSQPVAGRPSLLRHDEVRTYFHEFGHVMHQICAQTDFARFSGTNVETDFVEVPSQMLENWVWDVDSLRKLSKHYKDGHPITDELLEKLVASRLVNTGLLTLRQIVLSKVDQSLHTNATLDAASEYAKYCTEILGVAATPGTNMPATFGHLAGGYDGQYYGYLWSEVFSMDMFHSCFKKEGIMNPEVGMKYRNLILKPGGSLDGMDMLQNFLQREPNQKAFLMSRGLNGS

[2] = molecular target: Neurolysin, mitochondrial (Rattus norvegicus, UniProt P42676); assay: Activation of recombinant rat Nln using MCA-Pro-Leu-Gly-Pro-D-Lys (DNP)-OH as substrate preincubated for 10 mins followed by substrate addition and measured after 20 mins by fluorescence based assay
Sequence of Neurolysin, mitochondrial (P42676 whole entry): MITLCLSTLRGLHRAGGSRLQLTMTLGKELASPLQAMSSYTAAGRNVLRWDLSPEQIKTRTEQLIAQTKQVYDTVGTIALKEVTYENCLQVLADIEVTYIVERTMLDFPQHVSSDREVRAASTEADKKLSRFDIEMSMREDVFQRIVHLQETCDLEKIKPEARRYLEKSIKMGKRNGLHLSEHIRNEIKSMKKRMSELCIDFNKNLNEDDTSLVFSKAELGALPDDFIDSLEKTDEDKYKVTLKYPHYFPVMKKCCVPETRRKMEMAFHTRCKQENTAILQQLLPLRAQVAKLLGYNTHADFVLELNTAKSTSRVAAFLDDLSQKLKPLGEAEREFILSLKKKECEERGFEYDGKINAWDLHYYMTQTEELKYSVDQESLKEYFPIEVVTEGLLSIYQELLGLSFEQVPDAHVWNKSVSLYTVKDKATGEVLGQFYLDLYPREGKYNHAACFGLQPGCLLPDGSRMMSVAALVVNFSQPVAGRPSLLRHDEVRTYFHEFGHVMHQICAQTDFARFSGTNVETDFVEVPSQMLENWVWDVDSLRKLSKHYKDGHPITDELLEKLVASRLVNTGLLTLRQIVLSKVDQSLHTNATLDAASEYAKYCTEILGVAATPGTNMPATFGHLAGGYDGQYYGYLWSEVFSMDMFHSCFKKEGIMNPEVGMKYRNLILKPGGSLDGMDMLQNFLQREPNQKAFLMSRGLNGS

[3] = Permeability of compound in mouse BEND3 cells co-cultured with mouse primary astrocytes measured upto 120 mins by LC-MS/MS; assay type: ADME, cell-based; details: 2 h

Row | SMILES | Emax [1] | EC50 [2] | permeability [3]
1 | N[C@@H](Cc1c[nH]cn1)C(=O)Nc1ccc(C(F)(F)F)cc1C(F)(F)F | 368% | 25.2 µM | –
2 | COc1ccccc1NC(=O)[C@H](N)Cc1c[nH]cn1 | 428% | 53.5 µM | –
3 | N[C@@H](Cc1c[nH]cn1)C(=O)Nc1ccc(C(F)(F)F)cc1 | 335% | 32.2 µM | –
4 | N[C@H](Cc1c[nH]cn1)C(=O)Nc1cccc(C(F)(F)F)c1 | 362% | 22.8 µM | –
5 | COc1ccc(NC(=O)[C@H](N)Cc2c[nH]cn2)cc1 | 540% | 214 µM | –
6 | N[C@@H](Cc1c[nH]cn1)C(=O)Nc1c(F)cc(Br)cc1F | 370% | 26.7 µM | –
7 | N[C@H](Cc1c[nH]cn1)C(=O)Nc1ccccc1F | 331% | 78.2 µM | –
8 | N[C@@H](Cc1c[nH]cn1)C(=O)Nc1cc(C(F)(F)F)cc(C(F)(F)F)c1 | 633% | 279 µM | –
9 | COc1cc(NC(=O)[C@@H](N)Cc2c[nH]cn2)cc(OC)c1OC | 436% | 117 µM | –
10 | COc1cccc(NC(=O)[C@H](N)Cc2c[nH]cn2)c1 | 478% | 121 µM | –
11 | N[C@@H](Cc1c[nH]cn1)C(=O)Nc1ccc(F)cc1 | 488% | 136 µM | –
12 | COc1ccc(NC(=O)[C@@H](N)Cc2c[nH]cn2)cc1 | 582% | 241 µM | –
13 | N[C@@H](Cc1c[nH]cn1)C(=O)Nc1ccccc1F | 268% | 37.5 µM | –
14 | N[C@@H](Cc1c[nH]cn1)C(=O)Nc1cc(F)cc(F)c1 | 431% | 90.6 µM | –
15 | COc1cccc(NC(=O)[C@@H](N)Cc2c[nH]cn2)c1 | 454% | 105 µM | –
16 | N[C@H](Cc1c[nH]cn1)C(=O)Nc1ccc(F)cc1 | 403% | 36.1 µM | –
17 | N[C@@H](Cc1c[nH]cn1)C(=O)Nc1cccc(C(F)(F)F)c1 | 312% | 28.6 µM | –
18 | N[C@@H](Cc1c[nH]cn1)C(=O)Nc1cccc(F)c1 | 382% | 24.8 µM | –
19 | COc1cc(NC(=O)[C@@H](N)Cc2c[nH]cn2)cc(OC)c1 | 463% | 52.1 µM | Permeable
20 | COc1ccccc1NC(=O)[C@@H](N)Cc1c[nH]cn1 | 426% | 45.1 µM | –
21 | N[C@H](Cc1c[nH]cn1)C(=O)Nc1cccc(F)c1 | 396% | 30.9 µM | –
22 | N[C@H](Cc1c[nH]cn1)C(=O)Nc1ccc(C(F)(F)F)cc1 | 325% | 15.6 µM | Permeable
